Results on 28 molecules are retold here after patent US20060276464A1, “Diarylsulfone sulfonamides and use thereof” (Wyeth, priority 2005, published 2006).

For the data set, the target named is T1, SFRP-1 (Homo sapiens, UniProt Q8N474).
T1 sequence (Q8N474 32-314): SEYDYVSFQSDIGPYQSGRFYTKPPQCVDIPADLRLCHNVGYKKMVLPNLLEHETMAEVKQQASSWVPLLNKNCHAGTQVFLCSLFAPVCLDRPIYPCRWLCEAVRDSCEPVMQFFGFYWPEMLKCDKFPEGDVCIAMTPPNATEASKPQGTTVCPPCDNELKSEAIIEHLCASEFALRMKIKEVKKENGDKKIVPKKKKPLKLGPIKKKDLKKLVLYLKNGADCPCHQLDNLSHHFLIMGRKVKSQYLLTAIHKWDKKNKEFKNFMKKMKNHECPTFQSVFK
The data set is described as follows: Cell-based assay for in vitro measurement of SFRP-1/SARP2 antagonist activity (U2OS cells co-transfected with 16x TCF-tk-Luciferase reporter, Wnt and hSFRP-1).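 As to all read-outs here: U2OS cells co-transfected with a TCF-tk luciferase reporter, a Wnt vector, hSFRP-1 or empty vector and CMV-βgal, luciferase luminescence read in cell lysates alongside βgal activity.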 Particulars: for fold induction at 15 µM: U2OS. On the technique in general: In a reporter assay the amount or activity of a reporter protein is the signal.

The mark [1] stands for this setting: read-out: Fold Induction with SFRP-1, Conc 15 μM, with SFRP-1, fold induction over SFRP-1 control, single dose.
The mark [2] stands for this setting: read-out: Fold Induction without SFRP-1, Conc 15 μM, without SFRP-1, single dose.

Where two headings read alike, the source gives them in different places.

For the molecule `Cc1ccc(S(=O)(=O)c2ccc(Cl)cc2)cc1S(=O)(=O)NC[C@@H](C)c1ccccc1` [Example 265, 5-[(4-chlorophenyl)sulfonyl]-2-methyl-N-[(2S)-2-phenylpropyl]benzenesulfonamide], the “Fold Induction with SFRP-1” value (Conc 15 μM, with SFRP-1, fold induction over SFRP-1 control, single dose) came to 1.2 fold. Besides, the “Fold Induction without SFRP-1” value (Conc 15 μM, without SFRP-1, single dose) was 1 fold. Besides, the fold induction at 15 µM by setting is: under setting [1], 1.1; under setting [2], 1.1.
As to `CCc1ccc(S(=O)(=O)c2ccccc2)cc1S(=O)(=O)NC1Cc2ccccc2C1` [Example 266, N-2,3-dihydro-1H-inden-2-yl-2-ethyl-5-(phenylsulfonyl)benzenesulfonamide], the fold induction at 15 µM is 2.7 under setting [1] and 1.2 under setting [2].
Taken in the same sequence, the figures for `CCc1ccc(S(=O)(=O)c2ccccc2)cc1S(=O)(=O)N[C@H]1C[C@@H]1c1ccccc1` [Example 267, 2-ethyl-N-[(1S,2R)-2-phenylcyclopropyl]-5-(phenylsulfonyl)benzenesulfonamide] were 2 and 1.2.
In the case of `CCc1ccc(S(=O)(=O)c2ccccc2)cc1S(=O)(=O)NC[C@H](C)c1ccccc1` [Example 268, 2-ethyl-N-[(2R)-2-phenylpropyl]-5-(phenylsulfonyl)benzenesulfonamide], the fold induction at 15 µM is, setting by setting: under setting [1], 3.6; under setting [2], 1.1.
The corresponding values for `COc1ccc(S(=O)(=O)c2ccccc2)cc1S(=O)(=O)NC1Cc2ccccc2C1` [Example 269, N-2,3-dihydro-1H-inden-2-yl-2-methoxy-5-(phenylsulfonyl)benzenesulfonamide] are 1.4 and 1.2.
The corresponding values for `COc1ccc(S(=O)(=O)c2ccccc2)cc1S(=O)(=O)N[C@H]1C[C@@H]1c1ccccc1` [Example 270, 2-methoxy-N-[(1S,2R)-2-phenylcyclopropyl]-5-(phenylsulfonyl)benzenesulfonamide] are 1.5 and 1.2.
For `COc1ccc(S(=O)(=O)c2ccccc2)cc1S(=O)(=O)NC[C@H](C)c1ccccc1` [Example 271, 2-methoxy-N-[(2R)-2-phenylpropyl]-5-(phenylsulfonyl)benzenesulfonamide], the fold induction at 15 µM stood at 1.7 under setting [1] and 1.2 under setting [2].
For the molecule `COc1ccc(CCN(C)S(=O)(=O)c2cc(S(=O)(=O)c3ccccc3)ccc2C)cc1OC` [Example 272, N-[2-(3,4-dimethoxyphenyl)ethyl]-N,2-dimethyl-5-(phenylsulfonyl)benzenesulfonamide], the fold induction at 15 µM is 0.9 under setting [1] and 1 under setting [2].
The corresponding values for `C=CCN(CCc1ccc(OC)c(OC)c1)S(=O)(=O)c1cc(S(=O)(=O)c2ccccc2)ccc1C` [Example 273, N-allyl-N-[2-(3,4-dimethoxyphenyl)ethyl]-2-methyl-5-(phenylsulfonyl)benzenesulfonamide] are 0.9 and 1.
Consider `C#CCN(CCc1ccc(OC)c(OC)c1)S(=O)(=O)c1cc(S(=O)(=O)c2ccccc2)ccc1C` [Example 274, N-[2-(3,4-dimethoxyphenyl)ethyl]-2-methyl-5-(phenylsulfonyl)-N-prop-2-ynylbenzenesulfonamide], for which the fold induction at 15 µM runs as follows: under setting [1], 2; under setting [2], 1.
With `Cc1ccc(S(=O)(=O)c2ccc(C)c(S(=O)(=O)N(C)CCc3ccccc3F)c2)cc1` [Example 275, N-[2-(2-fluorophenyl)ethyl]-N,2-dimethyl-5-[(4-methylphenyl)sulfonyl]benzenesulfonamide], the fold induction at 15 µM was 0.8 under setting [1] and 0.8 under setting [2].
Consider `C=CCN(CCc1ccccc1F)S(=O)(=O)c1cc(S(=O)(=O)c2ccc(C)cc2)ccc1C` [Example 276, N-allyl-N-[2-(2-fluorophenyl)ethyl]-2-methyl-5-[(4-methylphenyl)sulfonyl]benzene sulfonamide], for which the fold induction at 15 µM came to 0.8 under setting [1] and 1 under setting [2].
`C#CCN(CCc1ccccc1F)S(=O)(=O)c1cc(S(=O)(=O)c2ccc(C)cc2)ccc1C` [Example 277, N-[2-(2-fluorophenyl)ethyl]-2-methyl-5-[(4-methylphenyl)sulfonyl]-N-prop-2-ynylbenzenesulfonamide]: the fold induction at 15 µM by setting is: under setting [1], 1.8; under setting [2], 1.
The corresponding values for `Cc1ccc(S(=O)(=O)c2ccccc2)cc1S(=O)(=O)N(C)CCc1ccccc1` [Example 278, N,2-dimethyl-N-(2-phenylethyl)-5-(phenylsulfonyl)benzenesulfonamide] are 1 and 0.9.
As to `Cc1ccc(S(=O)(=O)c2ccccc2)cc1S(=O)(=O)N1CCN(CC(=O)N2CCCC2)CC1` [Example 279, 1-{[2-methyl-5-(phenylsulfonyl)phenyl]sulfonyl}-4-(2-oxo-2-pyrrolidin-1-ylethyl)piperazine], the fold induction at 15 µM under setting [1] turned out to be 1.9 and the fold induction at 15 µM under setting [2] turned out to be 1.
In the case of `CCN(CC)CCN1CCN(S(=O)(=O)c2cc(S(=O)(=O)c3ccccc3)ccc2C)CC1` [Example 280, N,N-diethyl-N-[2-(4-{[2-methyl-5-(phenylsulfonyl)phenyl]sulfonyl}piperazin-1-yl)ethyl]amine], the fold induction at 15 µM amounted to 2.7 under setting [1] and 1.5 under setting [2].
The corresponding values for `Cc1ccc(S(=O)(=O)c2ccccc2)cc1S(=O)(=O)N1CCN(CCN2CCOCC2)CC1` [Example 281, 4-[2-(4-{[2-methyl-5-(phenylsulfonyl)phenyl]sulfonyl}piperazin-1-yl)ethyl]morpholine] are 2.8 and 1.3.
For `Cc1ccc(S(=O)(=O)c2ccccc2)cc1S(=O)(=O)N1CCN(CCN2CCCC2)CC1` [Example 282, 1-{[2-methyl-5-(phenylsulfonyl)phenyl]sulfonyl}-4-(2-pyrrolidin-1-ylethyl)piperazine], the fold induction at 15 µM was found to be 2.4 under setting [1] and 1.6 under setting [2].
As to `Cc1ccc(S(=O)(=O)c2ccccc2)cc1S(=O)(=O)N1CCN(CCCN2CCOCC2)CC1` [Example 283, 4-[3-(4-{[2-methyl-5-(phenylsulfonyl)phenyl]sulfonyl}piperazin-1-yl)propyl]morpholine], the fold induction at 15 µM under setting [1] amounted to 1.8 and the fold induction at 15 µM under setting [2] was determined as 1.3.
The corresponding values for `CCc1ccc(S(=O)(=O)c2ccccc2)cc1S(=O)(=O)N(C)CCc1ccccc1` [Example 284, 2-ethyl-N-methyl-N-(2-phenylethyl)-5-(phenylsulfonyl)benzenesulfonamide] are 1.1 and 1.2.
Taken in the same sequence, the figures for `CCc1ccc(S(=O)(=O)c2ccccc2)cc1S(=O)(=O)N1CCN(CC(=O)N2CCCC2)CC1` [Example 285, 1-{[2-ethyl-5-(phenylsulfonyl)phenyl]sulfonyl}-4-(2-oxo-2-pyrrolidin-1-ylethyl)piperazine] were 2 and 1.1.
As for `CCc1ccc(S(=O)(=O)c2ccccc2)cc1S(=O)(=O)N1CCN(CCN(CC)CC)CC1` [Example 286, N,N-diethyl-N-[2-(4-{[2-ethyl-5-(phenylsulfonyl)phenyl]sulfonyl}piperazin-1-yl)ethyl]amine], the fold induction at 15 µM under setting [1] amounted to 2 and the fold induction at 15 µM under setting [2] was found to be 1.3.
As to `CCc1ccc(S(=O)(=O)c2ccccc2)cc1S(=O)(=O)N1CCN(CCN2CCOCC2)CC1` [Example 287, 4-[2-(4-{[2-ethyl-5-(phenylsulfonyl)phenyl]sulfonyl}piperazin-1-yl)ethyl]morpholine], the fold induction at 15 µM by setting is: under setting [1], 2.1; under setting [2], 1.2.
As to `CCc1ccc(S(=O)(=O)c2ccccc2)cc1S(=O)(=O)N1CCN(CCN2CCCC2)CC1` [Example 288, 1-{[2-ethyl-5-(phenylsulfonyl)phenyl]sulfonyl}-4-(2-pyrrolidin-1-ylethyl)piperazine], the fold induction at 15 µM is, setting by setting: under setting [1], 3.6; under setting [2], 1.7.
Take `CCc1ccc(S(=O)(=O)c2ccccc2)cc1S(=O)(=O)N1CCN(CCCN2CCOCC2)CC1` [Example 289, 4-[3-(4-{[2-ethyl-5-(phenylsulfonyl)phenyl]sulfonyl}piperazin-1-yl)propyl]morpholine]: the fold induction at 15 µM is, setting by setting: under setting [1], 2.3; under setting [2], 1.1.
Taken in the same sequence, the figures for `Cc1ccc(S(=O)(=O)c2ccc(Cl)cc2)cc1S(=O)(=O)NCCN1CCOCC1` [Example 290, 5-[(4-chlorophenyl)sulfonyl]-2-methyl-N-(2-morpholin-4-ylethyl)benzenesulfonamide] were 1.9 and 0.8.
The corresponding values for `Cc1ccc(S(=O)(=O)c2ccc(Cl)cc2)cc1S(=O)(=O)NCCc1ccccn1` [Example 291, 5-[(4-chlorophenyl)sulfonyl]-2-methyl-N-(2-pyridin-2-ylethyl)benzenesulfonamide] are 1.7 and 0.9.
Taken in the same sequence, the figures for `Cc1ccc(S(=O)(=O)c2ccc(Cl)cc2)cc1S(=O)(=O)NCCCn1ccnc1` [Example 292, 5-[(4-chlorophenyl)sulfonyl]-N-[3-(1H-imidazol-1-yl)propyl]-2-methylbenzenesulfonamide] were 2.3 and 0.8.
